Values of other authors in US9085569B2, “1,2,4-oxadiazol derivatives, process for their preparation and use thereof as intermediates in the preparation of indolic alkaloids” (CONSIGLIO NAZIONALE DELLE RICERCHE, priority 2012, dated 2015).

System: HeLa cell line (uterine cervix cancer)
Conditions: background statement

In the case of `N=C(N)NCCCCCNc1noc(Cc2c[nH]c3ccccc23)n1` [phidianidine B], the cytotoxic activity is given as “high cytotoxic activity”.
